The values that follow come from patent publication US20050080055A1, “Method of treating breast cancer with androgen receptor antagonists” (priority 2003, published 2005).

Common to all, as to experiment: Sulforhodamine B (SRB) cytotoxicity assay
Assay type in all cases: cell-based
A general note: In SRB staining, fixed cells bind dye roughly in proportion to their protein.

The subject of assay [1] is MCF-7. As to conditions: Homo sapiens. The procedure:
(§1) The SRB Assay was used to determine cell number during cytotoxocity experiments. The following protocol was used: • 1. Cells were detached with 0.25% trypsin. • 2. Experimental cultures were cultured in 96-well microtiter plates (200 uL growth medium per well; 1,000-200,000 cells per well). • 3. Cultures were fixed with 50 uL 50% TCA (4° C.). (see cell fixation protocol for details). • 4. Fixed cells were stained with 50 uL 0.4% (wt/vol) SRB in 1% acetic acid for 10 minutes. • 5. SRB was removed and the cultures were quickly* rinsed 5 times with 1% acetic acid to remove unbound dye.** * quickly performing rinsing process is to prevent desorption of protein-bound SRB ** completely remove residual wash solution by sharply flicking plates over sink. • 6. Cultures were air-dried overnight until there is no visible moisture. • 7. The cellular protein-bound SRB was dissolved with 200 uL unbuffered Tris base (10 mM, pH 10.5) for 30 minutes on a rocking platform shaker. • 8. Absorbance was read at 540 nm. Fixation of Cells Attached to the Plastic Substratum
The following protocol was used for fixing cells: • a. 50 uL of 50% TCA (4° C.) were gently layered on the top of growth medium in each well to make a final TCA concentration of 10%. • b. Cultures were incubated at 4° C. for 1 hour. • c. […]

Assay [2] concerns TCCSUP. As to conditions: Homo sapiens, TCC-SUP.
Assay [3] deals with PPC-1. Particulars: Homo sapiens. The procedure: (§2) PPC-1, LNCaP, TSU, PC-3, and DU145 were grown in PRMI-1640 medium containing 2 mM L-glutamine supplemented with 10% fetal bovine serum (FBS). Cells were maintained in a 5% CO2/95% air humidified atmosphere at 37° C.
as §1
(§3) The following protocol was used for fixing cells: • a. 50 uL of 50% TCA (4° C.) were gently layered on the top of growth medium in each well to make a final TCA concentration of 10%. • b. Cultures were incubated at 4° C. for 1 hour. • c. Cultures were washed 5 times with tap water to remove TCA, growth medium, low-molecular-weight metabolites, and serum protein. • d. Plates were air-dried until there was no visible moisture.
(§4) The IC50s of I-31, I-29, S-NTBA and Compound V in different prostate cancer cell lines (DU 145, PC-3, TSU, PPC-l and LNCaP), in a breast cancer cell line (MCF-7), in other cancer cell lines ([…]) and in a control cell line (CV-1) after 1 and 4 days of incubation with the drug, are shown in Tables 2A and B.

The subject of assay [4] is DU 145. As to conditions: Homo sapiens. As for the experimental part: as §2, §1, §3, §4
Assay [5] concerns TSU. As to conditions: Homo sapiens, 96 h; drug incubation time 4 days. The procedure: as §2, §1, §3, §4
Assay [6] deals with PC-3. Particulars: Homo sapiens. As for the experimental part:
as §2, §1, §3, §4

In assay [7] the test system is LNCaP. Particulars: Homo sapiens. As for the experimental part:
as §2, §1, §3, §4

The subject of assay [8] is HT-29. As to conditions: Homo sapiens.
Where [9] appears, read: 24 h, drug incubation time 1 day.
[10] abbreviates: 96 h, drug incubation time 4 days.

Usually IC50 stands for the concentration that inhibits the measured activity by half. Higher therefore signals a need for much substance.

In the case of `C[C@@](O)(CBr)C(=O)Nc1ccc([N+](=O)[O-])c(C(F)(F)F)c1` [S-NTBA], the IC50 in assay [1] (MCF7, 24 h, drug incubation time 1 day) is 3.3 ± 0.6 µM; in assay [1] (MCF7, 96 h, drug incubation time 4 days), 3.3 ± 0.6 µM; in assay [2] (setting [9]), 9.5 ± 3.6 µM; in assay [2] (setting [10]), 4.6 µM; in assay [3] (PPC-1, 24 h, drug incubation time 1 day) it was 1.7 ± 0.2 µM; in assay [3] (PPC-1, 96 h, drug incubation time 4 days), 2.7 µM. In addition, the IC50 in assay [4] (DU-145, 24 h, drug incubation time 1 day) was 5.5 ± 0.6 µM; in assay [4] (DU-145, 96 h, drug incubation time 4 days), 4.6 µM; in assay [5] it was 2.9 µM; in assay [6] (PC-3, 24 h, drug incubation time 1 day), 7.9 ± 0.7 µM; in assay [6] (PC-3, 96 h, drug incubation time 4 days), 3.7 µM; in assay [7] (setting [9]) it was 1.6 ± 0.5 µM. Besides, the IC50 in assay [7] (setting [10]) is 1.8 µM; in assay [8] (HT-29, 24 h, drug incubation time 1 day) it was 19.8 ± 1 µM; in assay [8] (HT-29, 96 h, drug incubation time 4 days), 10.8 µM.
